Biological target: human HSD1 (Homo sapiens, UniProt P28845)
Test: in vitro inhibition of 11β-HSD1 (cortisone to cortisol conversion, time-resolved fluorescence)
Assay type: biochemical
Conditions: purified human HSD1, cortisone substrate, NADPH, 30 min incubation, time-resolved fluorescence readout; read-out: hHSD1 IC50
Description: Purified human HSD1 was diluted in 50 mM Tris-HCl, 100 mM NaCl, 0.1 mg/ml BSA, 0.02% Lubrol, 20 mM MgCl2, 10 mM glucose 6-phosphate, 0.4 mM NADPH, 60 U/ml glucose 6-phosphate dehydrogenase to a concentration of 1.5 ug/ml (Enzyme Solution). Cortisone (100 uM) in DMSO was diluted to 1 uM with 50 mM Tris-HCl, 100 mM NaCl (Substrate Solution). Testing compounds (40 uM) in DMSO was diluted 3 fold in series in DMSO and further diluted 20 fold in Substrate Solution. Enzyme Solution (10 ul/well) was added into 384 well microtiter plates followed by diluted compound solutions (10 ul/well) and mixed well. Samples were then incubated at […] for 30 min. EDTA/biotin-cortisol solution (10 ul/well) in 28 mM EDTA, 100 nM biotin-cortisol, 50 mM Tris-HCl, 100 mM NaCl was then added followed by 5 ul/well of anti-cortisol antibody (3.2 ug/ml) in 50 mM Tris-HCl, 100 mM NaCl, 0.1 mg/ml BSA and the solution was incubated at 37 degrees for 30 min. Five ul per well of Eu-conjugated anti-mouse IgG (16 nM) and APC-conjugated streptavidin (160 nM) in 50 mM Tris-HCl, 100 mM NaCl, 0.1 mg/ml BSA was added and the solution was incubated at room temperature for 2 hours. Signals were quantitated by reading time-resolved fluorescence on a Victor 5 reader (Wallac).
Percent inhibition of HSD1 activity by an agent at various concentrations was calculated by the formula % Inhibition=100*[1−(Fs−Fb)/(Ft−Fb)], where: • Fs is the fluorescence signal of the sample which included the agent, • Fb is the fluorescence signal in the absence of HSD1 and agent, • Ft is the fluorescence signal in the presence of HSD1, but no agent.
The inhibitory activities of test compounds were determined by the IC50s, or the concentration of compound that gave 50% inhibition.

Chain of human HSD1 (P28845 whole entry): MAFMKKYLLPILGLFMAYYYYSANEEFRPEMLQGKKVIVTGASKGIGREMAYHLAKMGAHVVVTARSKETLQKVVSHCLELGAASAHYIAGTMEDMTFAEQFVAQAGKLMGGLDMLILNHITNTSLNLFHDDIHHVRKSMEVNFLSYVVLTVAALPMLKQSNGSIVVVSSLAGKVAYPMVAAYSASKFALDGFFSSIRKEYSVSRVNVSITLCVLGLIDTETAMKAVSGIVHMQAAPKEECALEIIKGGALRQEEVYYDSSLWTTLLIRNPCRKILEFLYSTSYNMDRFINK

SMILES	IC50
O=C(NC1CCCc2ccccc21)C1CCCN(S(=O)(=O)c2cccs2)C1 (stereo not drawn) [Example 187, 1-(Thiophene-2-sulfonyl)-piperidine-3-carboxylic acid (1,2,3,4-tetrahydro-naphthalen-1-yl)-amide]	190 nM
Cc1ccccc1CNC(=O)C1CCCN(S(=O)(=O)c2ccccc2)C1 (stereo not drawn) [Example 175, 1-Benzenesulfonyl-piperidine-3-carboxylic acid 2-methyl-benzylamide]	3000 nM
O=C(NC1CCc2ccccc21)C1CCCN(S(=O)(=O)c2ccccc2)C1 (stereo not drawn) [Example 169, 1-Benzenesulfonyl-piperidine-3-carboxylic acid indan-1-ylamide]	390 nM
O=C(NCc1cccc2ccccc12)C1CCCN(S(=O)(=O)c2ccccc2Cl)C1 (stereo not drawn) [Example 43, 1-(2-Chloro-benzenesulfonyl)-piperidine-3-carboxylic acid (naphthalen-1-ylmethyl)-amide]	25 nM
CC(C)CCNC(=O)[C@@H]1CCCN(S(=O)(=O)c2ccccc2Cl)C1 [Example 2, (3R)-1-(2-Chloro-benzenesulfonyl)-piperidine-3-carboxylic acid (3-methyl-butyl)-amide]	290 nM
CCC(COC)NC(=O)C1CCCN(S(=O)(=O)c2ccccc2)C1 (stereo not drawn) [Example 173, 1-Benzenesulfonyl-piperidine-3-carboxylic acid (1-methoxymethyl-propyl)-amide]	940 nM
O=C(NC1CCCCC1)C1CCCN(S(=O)(=O)c2ccc3ccccc3c2)C1 (stereo not drawn) [Example 73, 1-(Naphthalene-2-sulfonyl)-piperidine-3-carboxylic acid cyclohexylamide]	47 nM
Cc1c(Cl)cccc1S(=O)(=O)N1CCCC(C(=O)NCCCc2ccccc2)C1 (stereo not drawn) [Example 80, 1-(3-Chloro-2-methyl-benzenesulfonyl)-piperidine-3-carboxylic acid (3-phenyl-propyl)-amide]	12000 nM
CC(CNC(=O)C1CCCN(S(=O)(=O)c2ccccc2Cl)C1)c1ccccc1 (stereo not drawn) [Example 50]	31 nM
Cc1ccccc1CNC(=O)C1CCCN(S(=O)(=O)c2ccc(F)cc2)C1 (stereo not drawn) [Example 128, 1-(4-Fluoro-benzenesulfonyl)-piperidine-3-carboxylic acid 2-methyl-benzylamide]	3000 nM
O=C(NCCc1cccc(Cl)c1)C1CCCN(S(=O)(=O)c2cccc3cccnc23)C1 (stereo not drawn) [Example 157, 1-(Quinoline-8-sulfonyl)-piperidine-3-carboxylic acid [2-(3-chloro-phenyl)-ethyl]-amide]	910 nM
CC(C)c1ccc(S(=O)(=O)N2CCCC(C(=O)NC3CCCCC3)C2)cc1 (stereo not drawn) [Example 135, 1-(4-Isopropyl-benzenesulfonyl)-piperidine-3-carboxylic acid cyclohexylamide]	390 nM
